We go through three molecules from US20230218581A1, “COMPOSITIONS AND METHODS COMPRISING DENDRIMERS AND THERAPEUTIC AGENTS” (The Johns Hopkins University, priority 2020, published 2023).

Usually IC50 stands for the concentration needed to halve the response being measured. The low end stands for higher potency, the high end for lower potency. A word on the half-life: it is the time needed for the level to fall by half in the phase considered. A word on the bioavailability: it is dose-corrected exposure relative to a reference, in per cent.

One data set concerns the target alkaline phosphatase. The data set can be described thus: selectivity: alkaline phosphatase inhibition. In kind it is biochemical.
The target of another data set is T1, P38d/MAPK13 (Homo sapiens, UniProt O15264).
T1 sequence (O15264 1-365): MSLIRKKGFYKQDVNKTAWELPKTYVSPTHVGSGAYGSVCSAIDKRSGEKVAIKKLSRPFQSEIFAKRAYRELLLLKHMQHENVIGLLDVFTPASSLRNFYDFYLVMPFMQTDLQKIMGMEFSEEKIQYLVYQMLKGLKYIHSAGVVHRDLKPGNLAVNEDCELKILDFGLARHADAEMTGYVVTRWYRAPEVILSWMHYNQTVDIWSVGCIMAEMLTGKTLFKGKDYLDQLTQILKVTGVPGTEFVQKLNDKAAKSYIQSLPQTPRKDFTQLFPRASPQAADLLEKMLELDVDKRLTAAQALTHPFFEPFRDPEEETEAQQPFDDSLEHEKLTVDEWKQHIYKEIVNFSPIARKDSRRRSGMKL
Put plainly: p38 MAP kinase profiling, P38d. Format: biochemical. To be noted: DPTIP tested at 0.001-100 μM.

A further data set relates to mouse primary glia. The data set can be described thus: exosome release from glial cells, nanoparticle tracking analysis. Format: cell-based. To be noted: glia activated by FBS, 0.03-100 μM, two hours after treatment.
Data set [1] has as its system synaptic proteins (PSD-95, NR2A, GluR1). The data set can be described thus: synaptic protein levels after nSMase2 inhibitor treatment. To be noted: 10 mg/kg daily; intraperitoneal. Format: in vivo.
The next data set concerns horizontal brain slices. The data set can be described thus: voltage traces from brain slices on multielectrode array. To be noted: pre and post 10 μM treatment.
Data set [2] in a line: Phase I metabolic stability, mouse liver microsomes. In kind it is in vitro ADME. To be noted: at 1 hr. The protocol:
(§1) The in vitro and in vivo pharmacokinetic properties of DPTIP were evaluated.
(§2) ; FIG. 6C) administration in mice were not optimal (F<5%, AUCbrain/plasma ratio <0.2).
In general terms: Liver microsomes are vesicles of endoplasmic reticulum, rich in cytochrome P450 enzymes.

Data set [3] in a line: Phase I metabolic stability, human liver microsomes. Format: in vitro ADME. To be noted: at 1 hr. As to the method: as §1, §2
Data set [4] can be described thus: phase II glucuronidation stability. In kind it is in vitro ADME. To be noted: at 1 hr.
Excerpt: as §2

A short description of data set [5]: DPTIP pharmacokinetics in mice. Format: in vivo. The protocol:
as §1, §2

Data set [6] is described as follows: DPTIP brain penetration in AD mice (3xTg). Format: in vivo. To be noted: mouse, brain/plasma, ip; AD mice (3×Tg), 10 mg/kg i.p.
Excerpt: as §2

For data set [7] the following is noted: 759 bioassays; cited from earlier work.
Another data set addresses P38a/MAPK14 (Homo sapiens, UniProt Q16539). The data set can be described thus: p38 MAP kinase profiling, P38a. To be noted: DPTIP tested at 0.001-100 μM.
In another data set the target is P38b/MAPK11 (Homo sapiens, UniProt Q15759). The data set can be described thus: p38 MAP kinase profiling, P38b. To be noted: DPTIP tested at 0.001-100 μM.
P38b/MAPK11, sequence (Q15759 whole entry): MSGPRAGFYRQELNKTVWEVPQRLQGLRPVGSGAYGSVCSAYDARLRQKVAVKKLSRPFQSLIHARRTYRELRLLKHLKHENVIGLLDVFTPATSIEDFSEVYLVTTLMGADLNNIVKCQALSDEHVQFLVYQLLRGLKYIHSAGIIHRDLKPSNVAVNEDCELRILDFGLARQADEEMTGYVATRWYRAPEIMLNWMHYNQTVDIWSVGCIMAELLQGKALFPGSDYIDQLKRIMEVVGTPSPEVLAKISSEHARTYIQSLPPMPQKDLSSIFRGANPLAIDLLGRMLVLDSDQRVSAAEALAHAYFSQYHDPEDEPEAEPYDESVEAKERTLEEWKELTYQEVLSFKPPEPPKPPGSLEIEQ
For a further data set, the target named is T2, P38g (Homo sapiens, UniProt P53778).
T2 sequence (P53778 1-367): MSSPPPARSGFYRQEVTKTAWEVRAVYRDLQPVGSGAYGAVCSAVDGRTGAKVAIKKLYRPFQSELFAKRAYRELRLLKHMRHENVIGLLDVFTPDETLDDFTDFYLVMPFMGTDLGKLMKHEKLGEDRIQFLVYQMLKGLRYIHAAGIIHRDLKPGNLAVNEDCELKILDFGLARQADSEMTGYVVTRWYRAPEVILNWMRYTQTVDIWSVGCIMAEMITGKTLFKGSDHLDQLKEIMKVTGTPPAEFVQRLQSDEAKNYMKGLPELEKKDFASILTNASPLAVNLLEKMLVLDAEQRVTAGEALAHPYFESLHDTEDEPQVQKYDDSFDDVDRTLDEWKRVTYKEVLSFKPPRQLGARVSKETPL
Put plainly: p38 MAP kinase profiling, P38g. To be noted: DPTIP tested at 0.001-100 μM.

The next data set has as its target T3, acid sphingomyelinase (Homo sapiens, UniProt P17405).
T3 sequence (P17405 47-631): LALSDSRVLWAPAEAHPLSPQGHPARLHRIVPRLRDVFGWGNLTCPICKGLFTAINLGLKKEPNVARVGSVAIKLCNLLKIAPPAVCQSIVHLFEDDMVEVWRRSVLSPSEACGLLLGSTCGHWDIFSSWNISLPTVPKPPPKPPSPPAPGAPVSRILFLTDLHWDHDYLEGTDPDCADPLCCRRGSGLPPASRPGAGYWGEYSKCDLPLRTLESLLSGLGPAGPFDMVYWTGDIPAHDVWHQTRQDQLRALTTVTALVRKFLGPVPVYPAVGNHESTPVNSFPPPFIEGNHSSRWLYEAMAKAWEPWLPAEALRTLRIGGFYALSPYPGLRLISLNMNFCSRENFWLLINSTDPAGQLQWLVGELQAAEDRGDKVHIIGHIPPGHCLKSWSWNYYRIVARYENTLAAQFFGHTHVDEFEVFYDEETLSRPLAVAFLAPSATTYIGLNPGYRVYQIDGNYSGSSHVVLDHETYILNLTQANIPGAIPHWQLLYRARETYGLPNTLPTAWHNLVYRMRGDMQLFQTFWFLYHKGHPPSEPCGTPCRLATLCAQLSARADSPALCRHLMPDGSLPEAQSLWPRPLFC
The data set can be described thus: selectivity: acid sphingomyelinase inhibition.

For data set [8], the system named is human immunodeficiency virus (HIV). To be noted: cited from earlier work.

P38a/MAPK14, sequence (Q16539 whole entry): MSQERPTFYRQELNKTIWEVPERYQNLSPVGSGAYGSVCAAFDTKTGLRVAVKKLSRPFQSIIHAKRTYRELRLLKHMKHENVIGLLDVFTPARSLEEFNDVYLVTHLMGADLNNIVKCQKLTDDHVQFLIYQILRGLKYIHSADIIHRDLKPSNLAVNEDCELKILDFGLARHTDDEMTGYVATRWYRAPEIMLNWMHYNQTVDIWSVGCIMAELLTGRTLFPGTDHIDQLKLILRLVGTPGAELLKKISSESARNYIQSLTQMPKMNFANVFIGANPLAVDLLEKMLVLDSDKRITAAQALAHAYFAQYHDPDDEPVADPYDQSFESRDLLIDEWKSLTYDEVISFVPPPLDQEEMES

On to `COc1cc(-c2nc(-c3cccs3)c(-c3ccccc3)[nH]2)cc(OC)c1O` [DPTIP, 2,6-dimethoxy-4-(5-phenyl-4-(thiophen-2-yl)-1H-imidazol-2-yl) phenol], for which the IC50 against alkaline phosphatase and on acid sphingomyelinase was more than 100 µM each time. For the same molecule, the “IC50 (M)” value against P38d/MAPK13, on P38a/MAPK14, at P38b/MAPK11 and at P38g was “not quantifiable” in each case. For the same molecule, the exosome release result in the data set on mouse primary glia is given as “inhibited exosome release in a dose-dependent manner”. Also, the “effect on PSD95 or NR2A” value in data set [1] is “no significant effect”. Also, in the data set on horizontal brain slices, the “differences in voltage traces (neuronal function)” value is “No significant differences”. In addition, the “% remaining (CYP-dependent oxidation)” value in data set [2] and in [3] was 100% each time. Also, the “% remaining (phase II glucuronidation)” value in data set [4] was more than 50%. Further, the “levels of DPTIP post-administration” value in data set [5] (2-he post-administration) was “undetectable”. Further, the Kp in data set [5] (mouse, brain/plasma, 10 mg/kg PO, read-out: AUCbrain/plasma ratio) is less than 0.2; in [6] it was less than 0.2. Besides, the clearance in [5] (mouse, plasma, oral, 10 mg/kg, read-out: clearance Clapp) came out at 92 mL/min/kg. Also, the half-life in [5] (mouse, plasma, oral, 10 mg/kg, read-out: plasma half-life t½ (converted)) is approximately 30 min. The bioavailability in data set [5] (mouse, plasma, 10 mg/kg PO, read-out: oral bioavailability F) was less than 5%. Besides, the “share of assays with weak activity (μM)” value in data set [7] is less than 2.5%.
On to `COc1cc(OC)cc(-c2nc(-c3cccs3)c(-c3ccccc3)[nH]2)c1` [des-hydroxyl analog, reference compound], for which the exosome release result with mouse primary glia was “no effect”.
As for `CCCCCCCCCC(=O)N[C@H](CO)C(=O)NC1=CC2(CO2)C(=O)C=C1` (stereo partly drawn) [spiroepoxide], the “dendritic cell-mediated infection of healthy CD4+ T lymphocytes” value in data set [8] is listed as “reduced”.
